Counter-ions that a name gives are not always drawn. A value given as a limit tells only on which side of the number the result lay.

Test [1] has as its target T1, human fibrinogen receptor GP IIb/IIIa (Homo sapiens, UniProt P05106+P08514).
T1 construct: Concentrated and lyophilized human platelet (20 vial) (Organon Teknika Co.) was lysed; tissue Organon Teknika Co; host or cells: human platelets (lyophilized), lysed in Triton X-100
Nature of the test: Binding inhibition of biotinylated fibrinogen to GP IIb/IIIa. As to conditions: purified human GP IIb/IIIa, read-out: Inhibition of GPIIb/IIIa . Fibrinogen Binding, IC50. On the procedure: Experiment for binding inhibition between GP IIb/IIIa and fibrinogen
1. Purification of human fibrinogen receptor GP IIb/IIIa
Concentrated and lyophilized human platelet (20 vial) (Organon Teknika Co.) was lysed in an antienzymic solution (80 ml) (1% Triton X-100, 10 mM Tris-HCl, 150 mM NaCl, 1 mM CaCl2, 10 μM leupeptin, 1 mM phenylmethane sulfonyl fluoride, pH 7.4), allowed to incubate for an hour at 4° C., and centrifuged at 30,000×g for 15 minutes to recover the supernatant solution containing 150 mg of protein. The GP IIb/IIIa was purified according to the method of Phillips et al. [Methods in Enzymology Vol. 215, (J. J. Hawigar, Eds.), 244-263, Acedemic Press Inc., San Diego].
2. Preparation of biotinylated fibrinogen
Human fibrinogen Grade L (KABI Co.) was purified by using Shepharose CL-6B and Lysine-Sepharose. Thus purified human fibrinogen (2.3 mg/ml) was dialyzed for 3 hours with 0.1M aqueous sodium bicarbonate solution at room temperature and successively diluted to 1 mg/ml. To the solution (4.5 ml) obtained, NHC-LC-Biotin (2 mg) (Pierce Co.) was added and reacted for 1 hour at room temperature to biotinylate fibrinogen. The reaction mixture was dialyzed at 4° C. for 24 hours with TBS (20 mM Tris-HCl, 150 mM NaCl, 1 mM CaCl2, 1 mM MgCl2, pH 7.4) to obtain biotinylated fibrinogen.
3. Binding inhibition of biotinylated fibrinogen to GP IIb/IIIa
Specimen drugs were dissolved and diluted with TBS containing 1% BSA. To each solution, an equal volume of biotinylated fibrinogen (2 μg/ml) dissolved in TBS containing 1% BSA, was added. The inhibition percentage of specimen drugs were measured by the method of Mori et al. [Jpn. J. Thromb. Hemost., 2, 323-399 (1991) with small modification].
Purified GP IIb/IIIa was diluted to 1.5 μg/ml in TBS containing 0.0005% of Triton X-100. The GP IIb/IIIa solution was added to a 96 well microplate (E.I.A/R.I.A. Plate, Costar Co.) in a volume of 100 μl for each well, and incubated at 4° C. for 24 hours to immobilize GP IIb/IIIa. The microplate was washed twice with a washing solution (TBS containing 0.01% of Tween 20). Thereafter TBS containing 3.5% of BSA was added to each well in a volume of 200 μl and blocking was carried out for about an hour at room temperature. The microplate was further washed twice with the washing solution, and successively a mixture of the specimen drug and the biotinylated fibrinogen was added in a volume of 100 μl/well and incubated for 24 hours at room temperature. The microplate was thereafter washed five times, and peroxidase-labeled streptoavidin (a kit of Amersham Co.) which was previously diluted 3000 times with TBS was added in a volume of 100 μl/well and incubated for about 30 minutes at room temperature. After washing the microplate 5 times, a 0.05M phosphate-citrate buffer solution (pH5) containing o-phenylenediamine(0.4 mg/ml) (manufactured by Sigma Co.) and H2 O2 (0.012%) was added in a volume of 200 μl/well to develop color for 20-40 minutes. The reaction was stopped by addition of 0.3M sulfuric acid in a volume of 50 μl/well and absorbance at 490 nm was measured with Immunoreader NJ-200 (manufactured by Inter Med Co.). […]

The subject of test [2] is guinea pig platelets (platelet-rich plasma). The test can be described thus: In vitro inhibition of platelet aggregation in guinea pig (ADP-induced, PRP). The class given is cell-based. As to conditions: Cavia porcellus, ADP final concentration 5 μM, read-out: Platelet aggregation inhibitory activity in guinea pig, IC50. On the procedure:
In vitro experiment of platelet aggregation inhibition
1. Inhibition of platelet aggregation in Guinea pig
Blood of male guinea pig was collected with an injection syringe which contains 3.8 % sodium citrate as an anticoagulant in a ratio of 1 volume to 9 volumes of the blood. Successively, the collected blood mixture was subjected to centrifugation at 120×g for 15 minutes at room temperature to obtain platelet-rich plasma (PRP). An aliquot of PRP was further subjected to centrifugation at 1,200×g for 15 minutes to obtain platelet-poor plasma (PPP). Numbers of the platelet in PRP were measured with an automatic platelet counter: Sysmex PL-100 (manufactured by Toa Iyodenshi Co.) and PRP was diluted with PPP so as to adjust a platelet concentration to be about 300,000 particles/ μl. Platelet aggregation was measured by the following procedure with a 6 channel aggregometer: HEMA TRACER 1 (manufactured by NKK Co.).
After incubation of 240 μl of PRP at 37° C. for 2 minutes, 30 μl of the solvent of specimen as a control or of the specimen in various concentrations was added to PRP. Further 2 minutes later, 30 μl of adenosine diphosphate (final concentration: 5μM) was added to induce platelet aggregation. An inhibition percentage was obtained by comparing the maximum aggregation of the specimen drug group with that of control. […]

Test [3] has the same test system. Nature of the test: Inhibition against platelet aggregation ability after oral administration in guinea pig. The class given is in vivo. As to conditions: Cavia porcellus, 1 h, oral administration: 37 μmol/kg, blood collected after an hour, ADP 5 μM, read-out: Aggregation inhibiting rate (%). On the procedure: Experiment for inhibition against platelet aggregation ability after oral administration The specimen drug was dissolved or suspended at a concentration of 18.5 μmol/ml in a physiological saline containing 0.5% of Tween 80. […] A physiological saline containing 0.5% of Tween 80 was similarly administered as a control. […] The blood mixture was centrifuged at 800 r.p.m. for 20 minutes at room temperature to obtain PRP in the upper layer. The lower layer was further centrifuged at 3000 r.p.m. for 15 minutes to obtain PPP in upper layer. […] Platelet aggregation ability was measured according to the method for measuring in vitro platelet aggregation. […] HEMA TRACER 1 (manufactured by NKK Co.). After incubation of PRP at 37° C. for 2 minutes, a physiological saline (30 μl) was added. […] An inhibiting ratio was obtained by comparing the maximum aggregation of the specimen drug group with that of control.

For test [4], the system named is human platelets (platelet-rich plasma). Nature of the test: In vitro inhibition of platelet aggregation in human (ADP-induced, PRP). The class given is cell-based. As to conditions: ADP final concentration 5 μM, read-out: Platelet aggregation inhibitory activity in human, IC50. On the procedure:
2. Inhibition of platelet aggregation in human
Blood was collected from healthy human volunteers with an injection syringe and mixed one volume of 3.8% of sodium citrate as an anticoagulant to 9 volumes of the blood. Successively, the obtained blood mixture was subjected to centrifugation at 120×g for 15 minutes at room temperature to obtain platelet-rich plasma (PRP). An aliquot of PRP was further subjected to centrifugation at 1,200×g for 20 minutes to obtain platelet-poor plasma (PPP). Numbers of the platelet were measured with an automatic platelet counter: Sysmex PL-100 (manufactured by Toa Iyodenshi Co.) and PRP was diluted with PPP so as to adjust a platelet concentration to be about 250,000 particles/μl. Platelet aggregation was measured by the following procedure with a 6 channel aggregometer: HEMA TRACER 1 (manufactured by NKK Co.)
After incubation of 240 μl of PRP at 37° C. for 2 minutes, 30 μl of the solvent of specimen as a control or the specimen in various concentrations was added to PRP. Further 2 minutes later, 30 μl of adenosine diphosphate (final concentration: 5 μM) was added to induce platelet aggregation. An inhibition percentage was obtained by comparing the maximum aggregation of the specimen drug group with that of control. […]

T1 sequence (P08514 32-887 limits assumed): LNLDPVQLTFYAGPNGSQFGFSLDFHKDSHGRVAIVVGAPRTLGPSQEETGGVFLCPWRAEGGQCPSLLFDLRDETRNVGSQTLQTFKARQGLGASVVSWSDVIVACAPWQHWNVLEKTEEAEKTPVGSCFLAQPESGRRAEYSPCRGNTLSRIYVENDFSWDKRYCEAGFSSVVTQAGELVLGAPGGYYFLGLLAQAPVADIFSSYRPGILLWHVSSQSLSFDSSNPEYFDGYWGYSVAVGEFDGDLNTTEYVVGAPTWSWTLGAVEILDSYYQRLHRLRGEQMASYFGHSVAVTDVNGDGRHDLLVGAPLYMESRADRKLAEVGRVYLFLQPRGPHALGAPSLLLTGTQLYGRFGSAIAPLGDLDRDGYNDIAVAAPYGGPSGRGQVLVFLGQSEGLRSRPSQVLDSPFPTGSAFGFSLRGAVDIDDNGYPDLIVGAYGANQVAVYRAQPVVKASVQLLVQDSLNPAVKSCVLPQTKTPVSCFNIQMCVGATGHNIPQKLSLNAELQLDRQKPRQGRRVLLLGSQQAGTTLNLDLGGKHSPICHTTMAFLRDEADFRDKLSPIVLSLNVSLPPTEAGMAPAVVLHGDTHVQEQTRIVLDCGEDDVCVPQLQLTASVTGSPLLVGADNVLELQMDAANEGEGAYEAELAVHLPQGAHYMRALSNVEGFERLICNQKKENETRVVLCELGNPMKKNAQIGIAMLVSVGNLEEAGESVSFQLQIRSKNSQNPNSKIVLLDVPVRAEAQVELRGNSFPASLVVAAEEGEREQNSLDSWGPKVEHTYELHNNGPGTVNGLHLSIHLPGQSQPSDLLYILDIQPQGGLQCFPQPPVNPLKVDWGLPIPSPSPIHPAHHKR
T1 sequence (P08514 891-1039 partner limits assumed): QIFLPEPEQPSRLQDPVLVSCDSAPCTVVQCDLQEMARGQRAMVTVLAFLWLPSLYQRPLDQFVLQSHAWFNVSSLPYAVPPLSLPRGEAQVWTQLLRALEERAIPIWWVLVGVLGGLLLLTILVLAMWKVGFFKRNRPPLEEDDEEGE
T1 sequence (P05106 27-788): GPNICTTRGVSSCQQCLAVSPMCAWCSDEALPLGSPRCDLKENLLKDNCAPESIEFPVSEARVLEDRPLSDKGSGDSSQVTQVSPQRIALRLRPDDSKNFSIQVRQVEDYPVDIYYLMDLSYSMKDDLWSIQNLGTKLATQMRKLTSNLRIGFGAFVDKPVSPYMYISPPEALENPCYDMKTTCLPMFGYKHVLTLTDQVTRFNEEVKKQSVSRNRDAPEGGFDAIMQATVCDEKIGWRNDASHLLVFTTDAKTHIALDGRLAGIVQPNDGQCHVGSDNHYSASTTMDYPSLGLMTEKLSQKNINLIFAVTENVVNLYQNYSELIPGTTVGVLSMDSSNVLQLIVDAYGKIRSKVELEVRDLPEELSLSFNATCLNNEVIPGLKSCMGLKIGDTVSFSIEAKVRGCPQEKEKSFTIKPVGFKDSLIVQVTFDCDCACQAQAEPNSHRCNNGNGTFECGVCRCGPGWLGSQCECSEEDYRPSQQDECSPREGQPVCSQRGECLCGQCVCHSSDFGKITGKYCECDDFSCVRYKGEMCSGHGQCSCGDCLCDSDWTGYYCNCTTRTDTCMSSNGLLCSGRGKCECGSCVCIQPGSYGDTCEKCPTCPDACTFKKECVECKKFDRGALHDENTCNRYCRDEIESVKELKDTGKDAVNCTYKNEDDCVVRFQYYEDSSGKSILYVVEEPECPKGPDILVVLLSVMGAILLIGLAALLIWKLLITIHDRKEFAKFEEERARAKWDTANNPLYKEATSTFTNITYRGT

Consider `N=C(NCc1cccs1)c1ccc(C(=O)Nc2ccc3c(c2)CC(CC(=O)O)CC3)cc1` (centres unmarked) [Example 37, 7-[[4-[N^2-(2-thenyl)amidino]benzoyl]amino]-1,2,3,4-tetrahydronaphthalene-2-acetic acid hydrochloride], for which the IC50 in test [1] was determined as 0.04 nM; in test [2], 220 nM.
On to `CCOC(=O)CC1CCc2ccc(NC(=O)c3ccc(C(=N)N4CCCCC4)cc3)cc2C1` (centres unmarked) [Example 17, ethyl 7-[[4-(piperidinoiminomethyl)benzoyl]amino]-1,2,3,4-tetrahydronaphthalene-2-acetate hydrochloride], for which the IC50 in test [2] stood at 270 nM. Moreover, the inhibition at 37 µmol/kg in test [3] was greater than 90%.
Take `CCOC(=O)CC1COc2ccc(NC(=O)c3ccc(C(=N)N4CCOCC4)cc3)cc2C1` (centres unmarked) [Example 4, ethyl 6-[[4-(morpholinoiminomethyl)benzoyl]amino]chroman-3-acetate hydrochloride]: in test [2], the IC50 was 120 nM. Besides, in test [3], the inhibition at 37 µmol/kg was greater than 90%.
For the compound `NC(=NCc1ccco1)c1ccc(C(=O)Nc2ccc3c(c2)CC(CC(=O)O)CC3)cc1` (centres unmarked) [Example 30, 7-[[4-[N^2-(2-furfuryl)amidino]benzoyl]amino]-1,2,3,4-tetrahydronaphthalene-2-aceticacid hydrochloride], the IC50 in test [1] stood at 0.14 nM; in test [2] it was 180 nM.
With `N=C(NCc1ccco1)c1ccc(C(=O)Nc2ccc3c(c2)CN(CC(=O)O)CC3)cc1` [Example 33, 7-[[4-[N^2-(2-furfuryl)amidino]benzoyl]amino]-1,2,3,4-tetrahydroisoquinoline-2-acetic acid dihydrochloride], the IC50 in test [4] is 160 nM.
In the case of `CCOC(=O)CC1CCc2ccc(NC(=O)c3ccc(C(=N)N4CCOCC4)cc3)cc2C1` (centres unmarked) [Example 1, ethyl 7-[[4-(morpholinoiminomethyl)benzoyl]amino]-1,2,3,4-tetrahydronaphthalene-2-acetate hydrochloride], the IC50 in test [2] amounted to 180 nM. Besides, the inhibition at 37 µmol/kg in test [3] was greater than 90%.
For `CCOC(=O)CC1CCc2ccc(NC(=O)c3ccc(C(=N)NCc4cccnc4)cc3)cc2C1` (centres unmarked) [Example 40, ethyl 7-[[4-[N^2-(3-picolyl)amidino]benzoyl]amino]-1,2,3,4-tetrahydronaphthalene-2-acetatedihydrochloride] the same measures were 110 nM and greater than 90%.
Take `N=C(c1ccc(C(=O)Nc2ccc3c(c2)CC(CC(=O)O)CO3)cc1)N1CCOCC1` (centres unmarked) [Example 5, 6-[[4-(morpholinoiminomethyl)benzoyl]amino]chroman-3-acetic acid hydrochloride]: in test [4], the IC50 turned out to be 66 nM.
On the same count and under the same terms, as for `C#CCNC(=N)c1ccc(C(=O)Nc2ccc3c(c2)CC(CC(=O)O)CO3)cc1` (centres unmarked) [Example 27, 6-[[4-(N^2-propargylamidino)benzoyl]amino]chroman-3-acetic acid hydrochloride], the figure is 78 nM.
Turning to `CCCN=C(N)c1ccc(C(=O)Nc2ccc3c(c2)CC(CC(=O)OCC)CC3)cc1` (centres unmarked) [Reference Example 9, ethyl 7-[[4-[N^2-(n-propyl)amidino]benzoyl]amino]-1,2,3,4-tetrahydronaphthalene-2-acetate hydrochloride, reference compound], the IC50 in test [2] came out at 520 nM. Also, in test [3], the inhibition at 37 µmol/kg came to 3%.
Taken in the same sequence, the figures for `CCOC(=O)CC1CCc2ccc(NC(=O)c3ccc(C(=N)N4CCCC4)cc3)cc2C1` (centres unmarked) [Example 21, ethyl 7-[[4-(pyrrolidinoiminomethyl)benzoyl]amino]-1,2,3,4-tetrahydronaphthalene-2-acetate hydrochloride] were 94 nM and greater than 90%.
For `CN1CCN(C(=N)c2ccc(C(=O)Nc3ccc4c(c3)CC(CC(=O)O)CC4)cc2)CC1` (centres unmarked) [Example 15, dihydrochloride], the IC50 in test [4] was determined as 110 nM.
Consider `C#CCN(C)C(=N)c1ccc(C(=O)Nc2ccc3c(c2)CC(CC(=O)O)CC3)cc1` (centres unmarked) [Example 35, 7-[[4-(N^2-methyl-N^2-propargylamidino)benzoyl]amino]-1,2,3,4-tetrahydronaphthalene-2-acetic acid hydrochloride], for which, in test [4], the IC50 stood at 160 nM.
On to `CCOC(=O)CC1COc2ccc(NC(=O)c3ccc(C(=N)NCc4ccco4)cc3)cc2C1` (centres unmarked) [Example 31, ethyl 6-[[4-[N^2-(2-furfuryl)amidino]benzoyl]amino]chroman-3-acetate hydrochloride], for which, in test [2], the IC50 amounted to 140 nM. For the same compound, the inhibition at 37 µmol/kg in test [3] is greater than 90%.
Turning to `N=C(c1ccc(C(=O)Nc2ccc3c(c2)OCC(CC(=O)O)C3)cc1)N1CCOCC1` (centres unmarked) [Example 9, 7-[[4-(morpholinoiminomethyl)benzoyl]amino]chroman-3-acetic acid hydrochloride], the IC50 in test [4] worked out at 171 nM.
Take `CCOC(=O)CC1CCc2ccc(NC(=O)c3ccc(C(=N)N4CCCCCC4)cc3)cc2C1` (centres unmarked) [Example 22, ethyl 7-[[4-(homopiperidinoiminomethyl)benzoyl]amino]-1,2,3,4-tetrahydronaphthalene-2-acetate hydrochloride]: in test [2], the IC50 came to 250 nM. For the same compound, in test [3], the inhibition at 37 µmol/kg was greater than 90%.

These data come from patent US5719145A, “Amidine derivatives and platelet aggregation inhibitor containing the same” (Mitsui Toatsu Chemicals, Inc., priority 1996, dated 1998).
